These results are taken from publication PMC10508830 (Antiviral research, 2023).

For orientation: IC50 means the point on the concentration scale where inhibition reaches its midpoint.

This assay deals with NA of clade 2.3.4.4b A(H5N1) viruses lacking the flagged NA substitutions (n = 15) (Influenza A virus, UniProt Q9Q0U7). It is filed as biochemical. The note with it: read-out: Median IC50 A(H5N1).
Sequence of NA of clade 2.3.4.4b A(H5N1) viruses lacking the flagged NA substitutions (n = 15) (Q9Q0U7 whole entry, looked up): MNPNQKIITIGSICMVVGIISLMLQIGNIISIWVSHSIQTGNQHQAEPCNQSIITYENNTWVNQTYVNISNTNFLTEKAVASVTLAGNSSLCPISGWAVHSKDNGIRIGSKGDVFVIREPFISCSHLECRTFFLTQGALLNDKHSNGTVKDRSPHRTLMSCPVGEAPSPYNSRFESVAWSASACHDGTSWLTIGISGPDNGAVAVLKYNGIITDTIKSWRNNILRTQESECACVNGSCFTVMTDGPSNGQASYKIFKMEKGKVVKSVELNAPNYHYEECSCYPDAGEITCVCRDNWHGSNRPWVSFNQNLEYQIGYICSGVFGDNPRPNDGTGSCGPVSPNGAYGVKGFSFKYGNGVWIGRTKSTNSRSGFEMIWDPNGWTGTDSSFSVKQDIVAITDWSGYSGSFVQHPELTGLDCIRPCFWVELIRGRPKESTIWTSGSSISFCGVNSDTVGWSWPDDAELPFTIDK

In the case of peramivir, the IC50 stood at 100 pM.
